Read-outs that look alike come from different tables or passages of the source.
Test system: Formosan subterranean termites (Coptotermes formosanus)
Test: whole plant or invertebrate
Settings: soil, 72 h
Procedure: The emulsifiable concentrates obtained in Formulation Examples 1, 2 and 3 were each diluted with distilled water to a predetermined concentration. Five milliliters of every dilute chemicals solution was added to 100 g of sandy loam previously heat-sterilized, and the mixture was thoroughly mixed to prepare a test soil. This test soil was stored at 40° C. under a dark condition. After storage for a predetermined period of time (2 months and 3 months), about 15 g of the test soil was put in a plastic dish (diameter, 9 cm; height, 2 cm) and wetted. Twenty workers of Formosan subterranean termites (Coptotermes formosanus) were liberated in the plastic dish. After the dish was kept at room temperature for 3 days, the condition of the termites was observed.
For comparison, the same test was also carried out using each of fenvalerate and MGK 264.
The same test as in Test Example 1 was carried out using the emulsifiable concentrates obtained in Formulation Examples 6 and 7.
For comparison, the same test was also carried out using each of permethrin and MGK 264.

[1] = read-out: Mortality (%) after 3 days

CC(C)C(C(=O)OC(C#N)c1cccc(Oc2ccccc2)c1)c1ccc(Cl)cc1 (stereo not drawn) [Fenvalerate, α-cyano-3-phenoxy-benzyl-2-(4-chlorophenyl)-3-methylbutyrate]
mortality at 125 ppm (read-out: Mortality (%) after 3 days, 125 ppm, treated soil stored 2 months at 40° C., Table 1): 0% | mortality at 125 ppm (read-out: Mortality (%) after 3 days, 125 ppm, treated soil stored 3 months at 40° C., Table 1): 0% | mortality at 250 ppm (read-out: Mortality (%) after 3 days, 250 ppm, treated soil stored 2 months at 40° C., Table 1): 0% | mortality at 250 ppm (read-out: Mortality (%) after 3 days, 250 ppm, treated soil stored 3 months at 40° C., Table 1): 0%

CCCCC(CC)CN1C(=O)C2C3C=CC(C3)C2C1=O (centres unmarked) [MGK 264, N-(2-ethylhexyl)bicyclo[2.2.1]hept-5-en-2,3-dicarboximide]
mortality at 500 ppm [1]: 0% | mortality at 1000 ppm [1]: 0%

CC1(C)C(C=C(Cl)Cl)C1C(=O)OCc1cccc(Oc2ccccc2)c1 (centres unmarked) [Permethrin, 3-phenoxybenzyl 3-(2,2-dichlorovinyl)-2,2-dimethylcyclopropanecarboxylate]
mortality at 125 ppm (read-out: Mortality (%) after 3 days, 125 ppm, treated soil stored 2 months at 40° C., Table 2): 80% | mortality at 125 ppm (read-out: Mortality (%) after 3 days, 125 ppm, treated soil stored 3 months at 40° C., Table 2): 30%

Reference: patent US6723331B1, “Termite-controlling agent and a controlling method thereof” (Sumitomo Chemical Company, Limited, priority 1992, dated 2004)
